molecular target: recombinant rat mGluR5 (Rattus norvegicus (Rat), UniProt P31424); test: Functional calcium flux assay (FLIPR); format: cell-based; conditions: HEK293 cells stably expressing recombinant rat mGluR5; inhibition of glutamate-evoked [Ca2+]i increase, 15 min incubation of test compound
Experimental: For functional assays, HEK293 cells stably expressing recombinant rat mGluR5 were seeded in 384-well plates and dye loaded using Fluo-8. Cells were then washed to remove the un-incorporated dye. Antagonist evaluation was performed following a 15 min incubation of the test compound followed by the addition of submaximal concentration of glutamate. Intracellular calcium ([Ca^2+]i) measurements were performed using a fluorometric imaging plate reader (FLIPR, Molecular Devices). The glutamate-evoked increase in [Ca^2+]i in the presence of the test compounds was compared to the response to glutamate alone (the positive control). Antagonist inhibition curves were fitted with a 4-parameter logistic equation giving IC50 values, and Hill coefficients using an iterative nonlinear curve fitting algorithm.
The tables below provide IC50 data in this assay. In the activity column, A=IC50>1,000 and <5,000 nM; B=IC50>500 and <1,000 nM and C=IC50<500 nM.

Sequence of recombinant rat mGluR5 (P31424 21-1203): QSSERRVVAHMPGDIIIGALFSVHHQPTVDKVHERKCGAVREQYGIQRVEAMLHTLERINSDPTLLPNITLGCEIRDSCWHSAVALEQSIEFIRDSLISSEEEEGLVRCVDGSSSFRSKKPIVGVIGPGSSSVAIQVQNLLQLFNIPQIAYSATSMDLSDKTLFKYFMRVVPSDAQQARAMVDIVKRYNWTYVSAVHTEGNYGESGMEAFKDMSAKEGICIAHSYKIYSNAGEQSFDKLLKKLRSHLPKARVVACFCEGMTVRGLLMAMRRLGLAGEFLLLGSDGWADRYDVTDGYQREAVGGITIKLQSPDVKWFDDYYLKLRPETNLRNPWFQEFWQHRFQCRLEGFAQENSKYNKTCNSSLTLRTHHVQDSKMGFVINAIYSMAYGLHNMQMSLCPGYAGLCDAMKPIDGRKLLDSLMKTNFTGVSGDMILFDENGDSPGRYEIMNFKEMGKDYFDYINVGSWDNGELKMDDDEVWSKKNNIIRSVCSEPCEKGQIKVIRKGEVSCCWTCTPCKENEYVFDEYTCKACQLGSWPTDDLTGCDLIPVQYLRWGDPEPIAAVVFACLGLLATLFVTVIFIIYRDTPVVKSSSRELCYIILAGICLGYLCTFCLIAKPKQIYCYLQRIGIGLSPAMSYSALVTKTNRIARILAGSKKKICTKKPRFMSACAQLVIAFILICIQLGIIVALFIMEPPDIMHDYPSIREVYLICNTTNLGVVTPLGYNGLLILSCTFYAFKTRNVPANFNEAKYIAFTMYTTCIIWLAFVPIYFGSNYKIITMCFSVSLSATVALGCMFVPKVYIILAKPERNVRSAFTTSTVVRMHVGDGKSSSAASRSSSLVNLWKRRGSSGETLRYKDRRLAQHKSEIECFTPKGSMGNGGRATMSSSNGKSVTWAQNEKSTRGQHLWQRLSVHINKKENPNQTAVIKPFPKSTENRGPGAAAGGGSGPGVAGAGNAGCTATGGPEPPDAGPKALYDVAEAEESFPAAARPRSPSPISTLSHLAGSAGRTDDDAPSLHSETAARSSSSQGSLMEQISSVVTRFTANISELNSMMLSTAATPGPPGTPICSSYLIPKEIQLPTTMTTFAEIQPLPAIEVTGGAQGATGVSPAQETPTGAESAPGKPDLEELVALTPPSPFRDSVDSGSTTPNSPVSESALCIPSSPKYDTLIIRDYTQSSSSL

`N#Cc1cc(F)cc(N2CC3CC3(C#Cc3ncccn3)C2)c1` (stereo not drawn) [Example Compound 8, 3-fluoro-5-(1-(pyrimidin-2-ylethynyl)-3-azabicyclo[3.1.0]hexan-3-yl) benzonitrile] and `N#Cc1cc(F)cc(N2CC3CC3(C#Cc3cnccn3)C2)c1` (stereo not drawn) [Example Compound 7, 3-fluoro-5-(1-(pyrazin-2-ylethynyl)-3-azabicyclo[3.1.0]hexan-3-yl) benzonitrile] cannot be ordered by IC50: less than 500 nM for the first, less than 500 nM for the second.

`O=C(c1cncc(Cl)c1)N1C[C@H]2C[C@@]2(C#Cc2ccccn2)C1` [Example Compound 54, (5-chloropyridin-3-yl)((1R,5S)-1-(pyridin-2-ylethynyl)-3-azabicyclo[3.1.0]hexan-3-yl)methanone] and `O=C(c1ccc(Cl)nc1)N1CC2CC2(C#Cc2ccccn2)C1` (stereo not drawn) [Example Compound 56, (6-chloropyridin-3-yl)-(1-(pyridin-2-ylethynyl)-3-azabicyclo[3.1.0]hexan-3-yl)methanone] cannot be ordered by IC50: less than 500 nM for the first, less than 500 nM for the second.

First: O=C(c1cccc(Cl)c1)N1CC2CC2(C#Cc2ncccn2)C1 (stereo not drawn) [Example Compound 61, (3-chlorophenyl)-(1-(pyrimidin-2-ylethynyl)-3-azabicyclo[3.1.0]hexan-3-yl)methanone]
Second: O=C(c1cc(Cl)ccn1)N1CC2CC2(C#Cc2ccccn2)C1 (stereo not drawn) [Example Compound 55, (4-chloropyridin-2-yl)-(1-(pyridin-2-ylethynyl)-3-azabicyclo[3.1.0]hexan-3-yl)methanone]
The IC50 of the first is higher: 500 to 1000 nM for the first, less than 500 nM for the second. The second is the more potent here.

`N#Cc1cccc(N2CC3CC3(C#Cc3ccccn3)C2)n1` (stereo not drawn) [Example Compound 38, 6-(1-(pyridin-2-ylethynyl)-3-azabicyclo[3.1.0]hexan-3-yl)picolinonitrile] and `N#Cc1ccnc(N2CC3CC3(C#Cc3ccccn3)C2)c1` (stereo not drawn) [Example Compound 23, 2-(1-(pyridin-2-ylethynyl)-3-azabicyclo[3.1.0]hexan-3-yl)isonicotinonitrile] cannot be ordered by IC50: less than 500 nM for the first, less than 500 nM for the second.

`O=C(N1CCCC1)N1CC2CC2(C#Cc2ccccn2)C1` (stereo not drawn) [Example Compound 59, (1-(pyridin-2-ylethynyl)-3-azabicyclo[3.1.0]hexan-3-yl)(pyrrolidin-1-yl)methanone] and `O=C(C1CCCC1)N1C[C@H]2C[C@@]2(C#Cc2ccccn2)C1` [Example Compound 51, cyclopentyl((1R,5S)-1-(pyridin-2-ylethynyl)-3-azabicyclo[3.1.0]hexan-3-yl)methanone] cannot be ordered by IC50: less than 500 nM for the first, less than 500 nM for the second.

`CCCCC(=O)N1CC2CC2(C#Cc2csc(C)n2)C1` (stereo not drawn) [Example Compound 67, 1-(1-((2-mehylthyiazol-4-yl)ethynyl)-3-azabicyclo[3.1.0]hexan-3-yl)pentan-1-one] and `Cc1nc(C#CC23CC2CN(C(=O)C(C)(C)C)C3)cs1` (stereo not drawn) [Example Compound 69, 2,2-dimethyl-1-(1-((2-methylthiazol-4-yl)ethynyl)-3-azabicyclo[3.1.0]hexan-3-yl)propan-1-one] cannot be ordered by IC50: less than 500 nM for the first, less than 500 nM for the second.

`O=C(NCC(F)(F)F)N1CC2CC2(C#Cc2ccccn2)C1` (stereo not drawn) [Example Compound 60, 1-(pyridin-2-yl-ethynyl)-N-(2,2,2-trifluoroethyl)-3-azabicyclo[3.1.0]hexane-3-carboxamide] and `CCCCC(=O)N1CC2CC2(C#Cc2ccccn2)C1` (stereo not drawn) [Example Compound 31, 1-(1-(pyridin-2-ylethynyl)-3-azabicyclo[3.1.0]hexan-3-yl)pentan-1-one] cannot be ordered by IC50: less than 500 nM for the first, less than 500 nM for the second.

`O=C(c1ccccn1)N1CC2CC2(C#Cc2ccccn2)C1` (stereo not drawn) [Example Compound 27, pyridin-2-yl(1-(pyridin-2-ylethynyl)-3-azabicyclo[3.1.0]hexan-3-yl)methanone] and `O=C(c1ccccc1)N1CC2CC2(C#Cc2ccccn2)C1` (stereo not drawn) [Example Compound 28, phenyl(1-(pyridin-2-ylethynyl) 3-azabicyclo[3.1.0]hexan-3-yl)methanone] cannot be ordered by IC50: less than 500 nM for the first, less than 500 nM for the second.

First: O=C(c1ccc(Cl)cc1)N1CC2CC2(C#Cc2ccccn2)C1 (stereo not drawn) [Example Compound 33, (4-chlorophenyl)(1-(pyridin-2-ylethynyl)-3-azabicyclo[3.1.0]hexan-3-yl)methanone]
Second: Clc1ccc(N2CC3CC3(C#Cc3ccccn3)C2)cc1 (stereo not drawn) [Example Compound 19, 3-(4-chlorophenyl)-1-(pyridin-2-ylethynyl)-3-azabicyclo[3.1.0]hexane]
The IC50 of the first is lower: less than 500 nM for the first, 500 to 1000 nM for the second.

`Cc1nc(C#CC23CC2CN(C(=O)c2cccc(Cl)c2)C3)cs1` (stereo not drawn) [Example Compound 49, (3-chlorophenyl)-(1-((2-methylthiazol-4-yl)ethynyl)-3-azabicyclo[3.1.0]hexan-3-yl)methanone] and `Cc1nc(C#CC23CC2CN(C(=O)c2ccccc2)C3)cs1` (stereo not drawn) [Example Compound 66, (1-((2-methylthiazol-4-yl)ethynyl)-3-azabicyclo[3.1.0]hexan-3-yl)(phenyl)methanone] cannot be ordered by IC50: less than 500 nM for the first, less than 500 nM for the second.

`O=S(=O)(c1ccccc1)N1CC2CC2(C#Cc2ccccn2)C1` (stereo not drawn) [Example Compound 5, 3-(phenylsulfonyl)-1-(pyridin-2-ylethynyl)-3-azabicyclo[3.1.0]hexane] and `O=S(=O)(c1ccccc1F)N1CC2CC2(C#Cc2ccccn2)C1` (stereo not drawn) [Example Compound 42, 3-((2-fluorophenyl)sulfonyl)-1-(pyridin-2-ylethynyl)-3-azabicyclo[3.1.0]hexane] cannot be ordered by IC50: less than 500 nM for the first, less than 500 nM for the second.

First: Cc1cccnc1C#CC12CC1CN(c1cc(F)cc(C#N)c1)C2 (stereo not drawn) [Example Compound 9]
Second: Cc1cccc(C#CC23CC2CN(c2cc(F)cc(C#N)c2)C3)n1 (stereo not drawn) [Example Compound 13, 3-fluoro-5-(1-((6-methylpyridin-2-yl)ethynyl)-3-azabicyclo[3.1.0]hexan-3-yl) benzonitrile]
The IC50 of the first is higher: 1000 to 5000 nM for the first, less than 500 nM for the second. The second is the more potent here.

`N#Cc1cccc(N2CC3CC3(C#Cc3ccccn3)C2)c1` (stereo not drawn) [Example Compound 40, 3-(1-(pyridin-2-ylethynyl)-3-azabicyclo[3.1.0]hexan-3-yl)benzonitrile] and `C(#CC12CC1CN(c1ccccc1)C2)c1ccccn1` (stereo not drawn) [Example Compound 10, 3-phenyl-1-(pyridin-2-ylethynyl)-3-azabicyclo[3.1.0]hexane] cannot be ordered by IC50: less than 500 nM for the first, less than 500 nM for the second.

First: CC(C)(C)C(=O)N1C[C@H]2C[C@@]2(C#Cc2ccccn2)C1 [Example Compound 52, 2,2-dimethyl-1-((1R,5S)-1-(pyridin-2-ylethynyl)-3-azabicyclo[3.1.0]hexan-3-yl)propan-1-one]
Second: O=C(Nc1ccccc1)N1CC2CC2(C#Cc2ccccn2)C1 (stereo not drawn) [Example Compound 57, N-phenyl-1-(pyridin-2-ylethynyl)-3-azabicyclo[3.1.0]hexane-3-carboxamide]
The IC50 of the first is lower: less than 500 nM for the first, 500 to 1000 nM for the second. The first is the more potent here.

First: Fc1ccccc1N1CC2CC2(C#Cc2ccccn2)C1 (stereo not drawn) [Example Compound 16, 3-(2-fluorophenyl)-1-(pyridin-2-ylethynyl)-3-azabicyclo[3.1.0]hexane]
Second: Fc1cc(N2CC3CC3(C#Cc3ccccn3)C2)ccc1Cl (stereo not drawn) [Example Compound 22, 3-(4-chloro-3-fluorophenyl)-1-(pyridin-2-ylethynyl)-3-azabicyclo[3.1.0]hexane]
The IC50 of the first is lower: less than 500 nM for the first, 500 to 1000 nM for the second. The first is the more potent here.

`O=S(=O)(c1ccccc1Cl)N1CC2CC2(C#Cc2ccccn2)C1` (stereo not drawn) [Example Compound 36, 3-((2-chlorophenyl)sulfonyl)-1-(pyridin-2-ylethynyl)-3-azabicyclo[3.1.0]hexane] and `O=S(=O)(c1ccc(Cl)cc1)N1CC2CC2(C#Cc2ccccn2)C1` (stereo not drawn) [Example Compound 35, 3-((4-chlorophenyl)sulfonyl)-1-(pyridin-2-ylethynyl)-3-azabicyclo[3.1.0]hexane] cannot be ordered by IC50: less than 500 nM for the first, less than 500 nM for the second.

`CC(C)C(=O)N1CC2CC2(C#Cc2cccc(Cl)n2)C1` (stereo not drawn) [Example Compound 65, 1-(1-((6-chloropyridin-2-yl)ethynyl)-3-azabicyclo[3.1.0]hexan-3-yl)-2-methylpropan-1-one] and `COc1cccc(C#CC23CC2CN(c2cc(F)cc(C#N)c2)C3)n1` (stereo not drawn) [Example Compound 15, 3-fluoro-5-(1-((6-methoxypyridin-2-yl)ethynyl)-3-azabicyclo[3.1.0]hexan-3-yl) benzonitrile] cannot be ordered by IC50: less than 500 nM for the first, less than 500 nM for the second.

`N#Cc1cc(F)cc(N2CC3CC3(C#Cc3ccnc(Cl)c3)C2)c1` (stereo not drawn) [Example Compound 12, 3-(1-((2-chloropyridin-4-yl)ethynyl)-3-azabicyclo[3.1.0]hexan-3-yl)-S-fluorobenzonitrile] and `Cc1nc(C#CC23CC2CN(c2cc(F)cc(C#N)c2)C3)cs1` (stereo not drawn) [Example Compound 39, 3-fluoro-5-(1-((2-methylthiazol-4-yl)ethynyl)-3-azabicyclo[3.1.0]hexan-3-yl)benzonitrile] cannot be ordered by IC50: less than 500 nM for the first, less than 500 nM for the second.

Compared with `C(#CC12CC1CN(c1ccc3[nH]ccc3n1)C2)c1ccccn1` (stereo not drawn) [Example Compound 24, 5-(1-(pyridin-2-ylethynyl)-3-azabicyclo[3.1.0]hexan-3-yl)-1H-pyrrolo[3,2-b]pyridine], `Fc1ccc(N2CC3CC3(C#Cc3ccccn3)C2)nc1` (stereo not drawn) [Example Compound 6, 3-(5-fluoropyridin-2-yl)-1-(pyridin-2-ylethynyl)-3-azabicyclo[3.1.0]hexane] is lower in IC50: 1000 to 5000 nM for the first, less than 500 nM for the second.

Compound `Fc1cncc(N2CC3CC3(C#Cc3ncccn3)C2)c1` (stereo not drawn) [Example Compound 63, 3-(5-fluoropyridin-3-yl)-1-(pyrimidin-2-ylethynyl)-3-azabicyclo[3.1.0]hexane] has an IC50 of less than 500 nM.

From patent publication US10328054B2, “Substituted pyrrolidines as mGluR5 antagonists” (Hua Medicine (Shanghai) Ltd., priority 2015, dated 2019)
